# In patent US10322074B2, “Apparatus and method for preparing cosmeceutical ingredients containing epi-dermal delivery mechanisms” (PPP&C INC., priority 2015, dated 2019):
# Assay: Phase behavior and solubility of lipid in dense CO2 / threshold pressure for precipitation
# Format: physicochemical
# Excerpt: Prior to liposome or niosome formation, the phase behavior and solubility of the chosen lipid in dense CO2 were investigated to verify the suitability of the lipid for dense gas processing and, in particular LPLTVs processing.
# Knowledge of the threshold pressure for precipitation of lipid from solution is also a key factor for design of the LPLTVs process in order to determine the maximum pressure for the technique so that yield is enhanced and loss of lipid in the expansion chamber minimized. The solid state of 1,2 distearoyl-sn-glycero-3-phosphocholine (DSPC) was maintained when the lipid was exposed to CO2 below 350 bar at 50° C. and 150 bar at 70° C. The solubility of DSPC in pure CO2 at 50° C. and pressures up to 280 bar was considered negligible. […] Use of higher pressures or larger amounts of organic solvent are undesirable, thus the results of the solubility study are in agreement with the literature in concluding that effects arising from poor solubility of lipids in dense CO2 are not easily overcome.
# In prior art, at 50° C. and 250 bar, DSPC required the addition of 4.8% v/v ethanol as well as the use of a recycling system for homogeneous dissolution of the lipid in CO2. In the current embodiment, the use of the LPLTVs process eliminates the current limitations of dense gas techniques associated with solubilizing lipids using a supercritical fluid and simply utilizes a dense gas as an aerosolization aid. The threshold pressure for the precipitation of DSPC from a 10 mg/mL ethanol solution at 22° C. was 55 bar.
# Precipitation was first observed at 58, 55, and 56 bar for the 5, 10, and 20 mg/mL solutions of DSPC and cholesterol (70:30 lipid to cholesterol weight ratio) in ethanol at 22° C., respectively. Therefore it can be seen that cholesterol had negligible effect on the threshold pressure. […] A faster pressurization rate is preferable for the embodiments LPLTVs process in order to minimize the time requirement for each experiment. During this experiment, noticeable expansion only started to occur after 50 bar was reached. […]
structure (smiles),measurement,setting,value
"CCCCCCCCCCCCCCCCCC(=O)OC[C@H](COP(=O)([O-])OCC[N+](C)(C)C)OC(=O)CCCCCCCCCCCCCCCCC [DSPC, 1,2 distearoyl-sn-glycero-3-phosphocholine]",threshold pressure for precipitation,"10 mg/mL ethanol solution, 22° C.",55 bar
same,effect of ethanol co-solvent on solubility in CO2,"5 mol % ethanol, 50° C., 250 bar",did not significantly improve
same,solubility in pure CO2,"50° C., pressures up to 280 bar",negligible
